For one data set, the target named is T1, AChE (from electric eel) (Electrophorus electricus, UniProt O42275).
T1 construct: purchased Merck & Co
In words: biochemical. The data set is classed as biochemical. Conditions: for Selectivity Index = IC50 (BChE)/IC50 (AChE): IC50 BuChE/IC50 AChE; for IC50: mean ± SEM, NA = No potent inhibitory activity. The method, then: (§1) Photometric 96-well microplates made from polystyrene (Thermo Scientific, Waltham, […]. USA) were used for measurement purposes.
(§2) AChE and BuChE inhibitory activities were measured by the spectrophotometric method of Ellman, with slight modification. Briefly, all in vitro assays were performed in 0.1 M NaH2PO4/Na2HPO4 buffer, pH 7.4, using a THERMO Enzyme-labeled Instrument. The enzyme solutions were prepared to obtain 2.0 units/mL in 2.0 mL aliquots. The assay medium (1 mL) consisted of phosphate buffer (pH 7.4), 10 μL of the enzyme, 30 μL of 0.01 M DTNB, and 30 μL of substrate (ATC or BTC) at a concentration of 0.01 M. The test and reference compounds were first dissolved in DMSO (5‰) and fetal bovine serum (1‰), and then diluted in 0.1 M NaH2PO4/Na2HPO4 buffer (pH 7.4) to provide a final concentration range. The inhibitors were added to the assay solution containing enzyme, buffer, and DTNB with pre-incubation for 20 min at 37 °C, prior to the addition of the substrate. The activity was determined by measuring the increase in absorbance at 410 nm at 1 min intervals at 37 °C. The data were calculated according to the method described by Ellman et al. Each concentration was assayed in triplicate. Blanks containing all of the components except AChE were included in the analyses.

For data set [1], the target named is T2, BuChE (from equine serum) (Equus caballus, UniProt P81908).
T2 construct: purchased Merck & Co; host or cells: equine serum
T2 sequence (P81908 whole entry): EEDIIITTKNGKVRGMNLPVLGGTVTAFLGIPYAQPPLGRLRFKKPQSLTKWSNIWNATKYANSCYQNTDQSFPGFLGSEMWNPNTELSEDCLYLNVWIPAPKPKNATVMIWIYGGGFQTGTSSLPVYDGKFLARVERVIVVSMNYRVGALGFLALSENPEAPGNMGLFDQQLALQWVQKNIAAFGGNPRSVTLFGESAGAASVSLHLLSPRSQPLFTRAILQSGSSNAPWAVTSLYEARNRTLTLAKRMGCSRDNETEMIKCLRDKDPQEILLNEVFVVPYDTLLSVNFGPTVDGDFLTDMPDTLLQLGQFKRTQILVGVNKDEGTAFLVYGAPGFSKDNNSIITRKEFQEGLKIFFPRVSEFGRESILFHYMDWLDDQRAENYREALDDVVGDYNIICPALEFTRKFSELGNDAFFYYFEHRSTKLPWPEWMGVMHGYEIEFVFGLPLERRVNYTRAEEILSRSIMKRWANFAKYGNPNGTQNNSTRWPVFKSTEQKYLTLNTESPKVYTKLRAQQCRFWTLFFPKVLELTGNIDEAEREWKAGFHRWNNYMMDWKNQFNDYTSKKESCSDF
In words: biochemical. Conditions: mean ± SEM. The method, then:
as §1, §2

A further data set addresses T3, Aβ (1-42) (Homo sapiens, UniProt P05067).
T3 construct: Aβ (1-42) peptide (Sigma-Aldrich); purchased Sigma-Aldrich
In words: biochemical. Conditions: self-induced aggregation, thioflavin-T; Aβ 20 μM, 37 °C, 24 h; NA = No potent inhibitory activity. The protocol: A Thioflavin T-based fluorometric assay was performed in order to investigate the self-induced Aβ (1-42) aggregation. Briefly, compounds to be tested were firstly dissolved in DMSO to obtain a 10 mM solution and then diluted in phosphate buffer (pH 7.4) to provide a final concentration range. […] After incubation, thioflavin-T (5 μM in 50 mM glycine-NaOH buffer, pH 8.0) was added into the above 96-well microplate and the samples were diluted to a final volume of 150 μL. […] Each inhibitor was run in triplicate.

For the next data set, the system named is HepG2 cells. Type of data set: cell-based. The method, then:
One of the best documented side-effects of the drug discovery and development of AD is cytotoxicity. To probe whether such a type of target compounds involves cytotoxic effects, we respectively treated HepG2 cells and SH-SY5Y cells with several concentrations of the corresponding compound. Cell viability was determined by a CCK-8 assay. […].
HepG2 cells (human hepatocellular liver carcinoma cell line from American Type Culture Collection, ATCC) were cultured in Eagle’s minimum essential medium (EMEM) supplemented with 10% heat-inactivated fetal bovine serum (FBS), and 100 U/mL of penicillin/streptomycin (Gino Biomedical Technology Co. LTD., Hangzhou, China). Cultures were seeded into flasks containing supplemented medium and maintained at 37 °C in a humidified atmosphere of 5% CO2. For assays, cells (1.0 × 10^5 cells/well) were seeded in a 96-well plate in complete medium, the medium was removed after 24 h, and cells were exposed to the increasing concentrations of compounds 8q or 8r (0, 25, 50, 125, 200, 300, 400, and 500 μM) in DMEM with no serum for a further 24 h. Cell survival was measured through a CCK-8 assay. All compounds were dissolved in pure DMSO.

A further data set concerns SH-SY5Y cells. The data set is classed as cell-based. The protocol:
To probe whether such a type of target compounds involves cytotoxic effects, we respectively treated HepG2 cells and SH-SY5Y cells with several concentrations of the corresponding compound. Cell viability was determined by a CCK-8 assay.
SH-SY5Y cells (human neuroblastoma cell line from American Type Culture Collection, ATCC, Manassas, VA, USA) were seeded into 96-well plates at a density of 4 × 10^4 cells/mL in Dulbecco’s modified Eagle’s medium (DMEM) supplemented with 10% FBS and 100 U/mL of penicillin/streptomycin (Gino Biomedical Technology Co. LTD., Hangzhou, China), and incubated in a humidified atmosphere containing 5% CO2 at 37 °C. […] After this incubation, 10 μL/well of CCK-8 (5 mg/mL) was added and incubated at 37 °C for 4 h. The optical density (OD) of each well was measured using an Epoch Microplate Spectrophotometer (BioTek Instruments, Inc., Winooski, VT, USA) with a test wavelength of 450, 630 nm.

The structures appear in SMILES notation. Where two headings read alike, the source gives them in different places.

T3 sequence (P05067 672-713): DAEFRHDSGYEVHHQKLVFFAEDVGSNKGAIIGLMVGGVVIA
T1 sequence (O42275 24-633): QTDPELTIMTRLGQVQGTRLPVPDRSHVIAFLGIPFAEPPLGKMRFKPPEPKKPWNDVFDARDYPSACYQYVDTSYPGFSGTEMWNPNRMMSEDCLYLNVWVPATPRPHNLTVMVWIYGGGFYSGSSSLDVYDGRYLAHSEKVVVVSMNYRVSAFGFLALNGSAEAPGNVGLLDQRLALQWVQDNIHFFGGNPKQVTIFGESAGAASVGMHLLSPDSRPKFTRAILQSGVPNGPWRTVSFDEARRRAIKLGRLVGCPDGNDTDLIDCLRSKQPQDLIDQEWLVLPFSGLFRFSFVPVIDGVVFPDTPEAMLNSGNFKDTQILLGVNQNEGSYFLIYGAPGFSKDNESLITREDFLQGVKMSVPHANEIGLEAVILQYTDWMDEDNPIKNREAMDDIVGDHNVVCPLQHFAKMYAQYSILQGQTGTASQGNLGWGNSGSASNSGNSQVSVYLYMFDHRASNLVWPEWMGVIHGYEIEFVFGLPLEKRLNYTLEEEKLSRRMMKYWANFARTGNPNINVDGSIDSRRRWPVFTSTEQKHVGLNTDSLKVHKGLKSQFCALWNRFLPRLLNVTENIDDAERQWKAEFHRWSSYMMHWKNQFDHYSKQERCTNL

In general, IC50 refers to the concentration that gives 50% inhibition. A high value points to weaker potency in that assay. For `COc1cccc(C(=O)OCCCOC(=O)c2nc(C)c(C)nc2C)c1OC` [Compound 8a, 3-[(2,3-Dimethoxybenzoyl)oxy]propyl 3,5,6-trimethylpyrazine-2-carboxylate], on AChE (from electric eel), the “Selectivity Index = IC50 (BChE)/IC50 (AChE)” value (“Selectivity Index = IC50” below) is 2.16 × 10^4 and the half-inhibitory concentration (IC50) was 0.1679 ± 0.00039 µM. This molecule came in with an IC50 in data set [1] of 3630 ± 70 µM.
Take `COc1cc(OC)cc(C(=O)OCCCOC(=O)c2nc(C)c(C)nc2C)c1` [Compound 8b, 3-[(3,5-Dimethoxybenzoyl)oxy]propyl 3,5,6-trimethylpyrazine-2-carboxylate]: on AChE (from electric eel), the “Selectivity Index = IC50” value is listed as 1.27 × 10^6. For the same molecule, the concentration for half-maximal inhibition (IC50) at AChE (from electric eel) was found to be 0.00443 ± 0.00035 µM; in data set [1], 5640 ± 380 µM; against Aβ (1-42), 3.66 ± 0.104 µM.
As for `COc1ccc(C(=O)OCCCOC(=O)c2nc(C)c(C)nc2C)c(OC)c1` [Compound 8c, 3-[(2,4-Dimethoxybenzoyl)oxy]propyl 3,5,6-trimethylpyrazine-2-carboxylate], the IC50 against AChE (from electric eel) came out at 0.3879 ± 0.00045 µM; in data set [1], 2700 ± 30 µM; on Aβ (1-42) it was 22.54 ± 0.014 µM.
With `COc1ccc(C(=O)OCCCOC(=O)c2nc(C)c(C)nc2C)cc1OC` [Compound 8d, 3-[(3,4-Dimethoxybenzoyl)oxy]propyl 3,5,6-trimethylpyrazine-2-carboxylate], on AChE (from electric eel), the “Selectivity Index = IC50” value is listed as 1.02 × 10^6. Moreover, the IC50 is 0.00412 ± 0.00024 µM on AChE (from electric eel), 4290 ± 120 µM in data set [1] and 51.81 ± 0.047 µM against Aβ (1-42).
The like results for `COc1cccc(OC)c1C(=O)OCCCOC(=O)c1nc(C)c(C)nc1C` [Compound 8e, 3-[(2,6-Dimethoxybenzoyl)oxy]propyl 3,5,6-trimethylpyrazine-2-carboxylate] were, in that order, 2.36 × 10^3, 0.1438 ± 0.00025 µM, 340 ± 30 µM and 55.86 ± 0.035 µM.
In the case of `Cc1nc(C)c(C(=O)OCCCOC(=O)c2cccc(Cl)c2)nc1C` [Compound 8f, 3-[(3-Chlorobenzoyl)oxy]propyl 3,5,6-trimethylpyrazine-2-carboxylate], the “Selectivity Index = IC50” value at AChE (from electric eel) is 4.95 × 10^5. Further, the IC50 was determined as 0.00661 ± 0.00013 µM at AChE (from electric eel), 3270 ± 60 µM in data set [1] and 45.88 ± 0.024 µM against Aβ (1-42).
Consider `Cc1nc(C)c(C(=O)OCCCOC(=O)c2cccc(Br)c2)nc1C` [Compound 8g, 3-[(3-Bromobenzoyl)oxy]propyl 3,5,6-trimethylpyrazine-2-carboxylate], for which, at AChE (from electric eel), the “Selectivity Index = IC50” value is 6.23. Also, half-maximal inhibition in data set [1] (IC50) required 21100 ± 460 µM.
Turning to `Cc1nc(C)c(C(=O)OCCCOC(=O)c2ccc(Br)cc2)nc1C` [Compound 8h, 3-[(4-Bromobenzoyl)oxy]propyl 3,5,6-trimethylpyrazine-2-carboxylate], the “Selectivity Index = IC50” value on AChE (from electric eel) was 2.62. The molecule further had an IC50 in data set [1] of 2490 ± 290 µM.
With `Cc1nc(C)c(C(=O)OCCCOC(=O)c2ccc(F)cc2)nc1C` [Compound 8i, 3-[(4-Fluorobenzoyl)oxy]propyl 3,5,6-trimethylpyrazine-2-carboxylate], at AChE (from electric eel), the “Selectivity Index = IC50” value is 1.14 × 10^2. This molecule also showed a concentration for half-maximal inhibition (IC50) against Aβ (1-42) of 211.18 ± 0.039 µM.
For `COc1ccc(C(=O)OCCCOC(=O)c2nc(C)c(C)nc2C)cc1F` [Compound 8j, 3-[(3-Fluoro-4-methoxybenzoyl)oxy]propyl 3,5,6-trimethylpyrazine-2-carboxylate], the “Selectivity Index = IC50” value on AChE (from electric eel) is given as 2.97. The IC50 amounted to 857 ± 2 µM in data set [1] and 7.12 ± 0.012 µM against Aβ (1-42).
The corresponding values for `Cc1nc(C)c(C(=O)OCCCOC(=O)c2cccc(F)c2)nc1C` [Compound 8k, 3-[(3-Fluorobenzoyl)oxy]propyl 3,5,6-trimethylpyrazine-2-carboxylate] are 9.49, 5490 ± 150 µM and 5.1 ± 0.04 µM.
With `COc1cc(CC(=O)OCCCOC(=O)c2nc(C)c(C)nc2C)cc(OC)c1OC` [Compound 8l, 3-{[(3,4,5-Trimethoxyphenyl)acetyl]oxy}propyl 3,5,6-trimethylpyrazine-2-carboxylate], the “Selectivity Index = IC50” value at AChE (from electric eel) is 1.31 × 10^4. The half-inhibitory concentration (IC50) on AChE (from electric eel) was 0.3034 ± 0.00026 µM; in data set [1], 3960 ± 260 µM; at Aβ (1-42), 77.45 ± 0.029 µM.
With `Cc1nc(C)c(C(=O)OCCCOC(=O)Cc2ccc(Br)cc2)nc1C` [Compound 8m, 3-{[(4-Bromophenyl)acetyl]oxy}propyl 3,5,6-trimethylpyrazine-2-carboxylate], the “Selectivity Index = IC50” value on AChE (from electric eel) is on record as 52.17. The same molecule registered a concentration for half-maximal inhibition (IC50) against Aβ (1-42) of 200.84 ± 0.016 µM.
`COc1ccc(CC(=O)OCCCOC(=O)c2nc(C)c(C)nc2C)cc1F` [Compound 8n, 3-{[(3-Fluoro-4-methoxyphenyl)acetyl]oxy}propyl 3,5,6-trimethylpyrazine-2-carboxylate]: the “Selectivity Index = IC50” value at AChE (from electric eel) is recorded as 20.67. Further, the IC50 in data set [1] was 3060 ± 340 µM.
Consider `COc1ccc(/C=C/C(=O)OCCCOC(=O)c2nc(C)c(C)nc2C)cc1OC` [Compound 8o, 3-{[(2E)-3-(3,4-Dimethoxyphenyl)prop-2-enoyl]oxy}propyl 3,5,6-trimethyl-pyrazine-2-carboxylate], for which the “Selectivity Index = IC50” value on AChE (from electric eel) was 1.23 × 10^6. In addition, the IC50 amounted to 0.00324 ± 0.0001 µM on AChE (from electric eel), 3970 ± 100 µM in data set [1] and 45.29 ± 0.033 µM against Aβ (1-42).
The like results for `COc1cc(/C=C/C(=O)OCCCOC(=O)c2nc(C)c(C)nc2C)cc(OC)c1OC` [Compound 8p, 3-{[(2E)-3-(3,4,5-Trimethoxyphenyl)prop-2-enoyl]oxy}propyl 3,5,6-tri-methylpyrazine-2-carboxylate] were, in that order, 4.30 × 10^4, 0.09351 ± 0.0002 µM, 4020 ± 30 µM and 71.28 ± 0.044 µM.
For the molecule `Nc1c2c(nc3ccccc13)CCCC2` [Tacrine, reference compound], the Cell viability with HepG2 cells (25 µM) is listed as 99.78 ± 1.07 ^ns percentage of control; in the data set on HepG2 cells (50 µM) it was 95.02 ± 2.30 ^ns percentage of control; in the data set with HepG2 cells (125 µM) it was 83.72 ± 0.73 percentage of control; in the data set with HepG2 cells (200 µM), 81.80 ± 1.86 percentage of control; with HepG2 cells (300 µM) it was 74.32 ± 3.93 percentage of control; with HepG2 cells (400 µM), 23.61 ± 0.05 percentage of control. The Cell viability was 19.92 ± 0.05 percentage of control in the data set with HepG2 cells (500 µM); 87.89 ± 0.85 ^ns percentage of control in the data set on SH-SY5Y cells (25 µM); 88.17 ± 1.55 ^ns percentage of control with SH-SY5Y cells (50 µM); 75.42 ± 0.78 percentage of control in the data set with SH-SY5Y cells (125 µM); 48.75 ± 0.43 percentage of control in the data set on SH-SY5Y cells (200 µM); 43.39 ± 2.69 percentage of control in the data set on SH-SY5Y cells (300 µM). In addition, the Cell viability in the data set with SH-SY5Y cells (400 µM) is listed as 34.69 ± 2.86 percentage of control.

Values taken from article PMC6222487 (Molecules : A Journal of Synthetic Chemistry and Natural …, 2018).
